Reference: publication PMC10178848, “Modulating fast skeletal muscle contraction protects skeletal muscle in animal models of Duchenne muscular dystrophy” (The Journal of Clinical Investigation, 2023)

Test system: mdx mouse EDL muscle
Assay: Phosphoprotein array analysis (Cell Signaling Phospho Antibody Array)
Protocol: mdx mouse EDL muscle was prepared for ex vivo analysis as described (n = 5). Muscles were incubated for 1 hour with DMSO or EDG-5506 (5 μM) and then flash frozen in liquid nitrogen. Tissue preparation and analysis were performed as recommended by the manufacturer (Cell Signaling Phospho Antibody Array, Full Moon Biosystems).

## O=c1ccc(-c2cnc(OCC(F)(F)F)nc2)nn1Cc1cncc(F)c1 [EDG-5506]
  Data Normalized to Median Signal: BAX (Phospho-Thr167): 0.77
5 μM, 1 hour
  Fold Change T/C: 4E-BP1 (Ab-45): 0.88
  Fold Change T/C: 4E-BP1 (Phospho-Thr45): 0.74
  Fold Change T/C: 14-3-3 theta/tau (Phospho-Ser232): 1.01
  Fold Change T/C: 14-3-3 zeta/delta (Ab-232): 1.03
  Fold Change T/C: ACC1 (Ab-80): 0.96
  Fold Change T/C: ACC1 (Phospho-Ser80): 0.92
  Fold Change T/C: AKT: 0.96
  Fold Change T/C: AKT1 (Ab-308): 1.11
  Fold Change T/C: AKT1S1 (Ab-246): 1.04
  Fold Change T/C: AMPKbeta1 (Ab-182): 0.89
  Fold Change T/C: AMPKbeta1 (Phospho-Ser182): 0.80
  Fold Change T/C: ASK1 (Ab-966): 0.99
  Fold Change T/C: ATF2 (Ab-62/44): 2.53
  Fold Change T/C: Actin Pan(a/b/g) (Ab-55/53): 0.97
  Fold Change T/C: B-RAF (Ab-598): 1.09
  Fold Change T/C: B-RAF (Phospho-Ser446): 1.05
  Fold Change T/C: BAX (Phospho-Thr167): 0.78
  Fold Change T/C: BCL-XL (Ab-47): 1.77
  Fold Change T/C: BCL-XL (Phospho-Ser62): 1.02
  Fold Change T/C: BID (Ab-78): 1.23
  Fold Change T/C: BLNK (Ab-96): 0.97
  Fold Change T/C: BLNK (Phospho-Tyr96): 0.51
  Fold Change T/C: BRCA1 (Ab-1524): 1.39
  Fold Change T/C: Bax: 0.89
  Fold Change T/C: Beclin-1: 1.49
  Fold Change T/C: Beta actin: 0.82
  Fold Change T/C: CBL (Phospho-Tyr700): 0.88
  Fold Change T/C: CDC25C (Ab-216): 1.97
  Fold Change T/C: CDK1/CDC2 (Phospho-Tyr15): 0.83
  Fold Change T/C: CREB (Ab-133): 0.71
  Fold Change T/C: CREB (Phospho-Ser133): 0.74
  Fold Change T/C: CaMK2-beta/gamma/delta (Ab-287): 1.42
  Fold Change T/C: CaMK2-beta/gamma/delta (Phospho-Thr287): 0.92
  Fold Change T/C: CaMK2A (Phospho-Thr286): 0.86
  Fold Change T/C: Calmodulin (Ab-79/81): 1.02
  Fold Change T/C: Caspase 8 (Phospho-Ser347): 1.08
  Fold Change T/C: Caspase 9 (Ab-196): 2.31
  Fold Change T/C: Caspase 9 (Phospho-Ser196): 0.94
  Fold Change T/C: Catalase (Ab-385): 1.34
  Fold Change T/C: Catenin beta (Ab-37): 1.21
  Fold Change T/C: Catenin beta (Phospho-Thr41/Ser45): 0.83
  Fold Change T/C: Chk2 (Ab-68): 1.17
  Fold Change T/C: Chk2 (Phospho-Thr68): 0.51
  Fold Change T/C: CrkII (Ab-221): 1.59
  Fold Change T/C: Cyclin D1 (Ab-286): 1.10
  Fold Change T/C: Cyclin D1 (Phospho-Thr286): 1.18
  Fold Change T/C: Cyclin E1 (Ab-77): 1.24
  Fold Change T/C: Cyclin E1 (Phospho-Thr77): 1.02
  Fold Change T/C: DARPP-32 (Ab-34): 1.01
  Fold Change T/C: DARPP-32 (Phospho-Thr34): 0.91
  Fold Change T/C: EEF2 (Ab-56): 0.84
  Fold Change T/C: EEF2 (Phospho-Thr56): 1.12
  Fold Change T/C: EGFR (Ab-1172): 0.86
  Fold Change T/C: Elk1 (Ab-389): 1.22
  Fold Change T/C: FADD (Phospho-Ser194): 1.53
  Fold Change T/C: FAK (Ab-910): 1.76
  Fold Change T/C: FAK (Phospho-Ser910): 1.09
  Fold Change T/C: FGFR1 (Phospho-Tyr654): 1.35
  Fold Change T/C: FKHRL1/FOXO3A (Ab-253): 1.74
  Fold Change T/C: FOXO1/3/4-pan (Ab-24/32): 1.40
  Fold Change T/C: GAPDH: 0.75
  Fold Change T/C: GRK2 (Ab-29): 1.92
  Fold Change T/C: GRK2 (Phospho-Ser29): 1.26
  Fold Change T/C: GSK3 alpha/beta (Phospho-Tyr216/279): 0.97
  Fold Change T/C: GSK3 beta: 1.12
  Fold Change T/C: Gab1 (Ab-627): 1.06
  Fold Change T/C: Gab2 (Phospho-Tyr643): 1.59
  Fold Change T/C: HDAC1 (Ab-421): 0.79
  Fold Change T/C: HDAC1 (Phospho-Ser421): 1.25
  Fold Change T/C: HDAC2 (Ab-394): 1.03
  Fold Change T/C: HDAC2 (Phospho-Ser394): 0.90
  Fold Change T/C: HER2 (Ab-1221/1222): 1.19
  Fold Change T/C: HSP27 (Ab-82): 0.82
  Fold Change T/C: HSP90B (Phospho-Ser226): 1.00
  Fold Change T/C: IKK alpha/beta (Ab-180/181): 0.91
  Fold Change T/C: IKK-beta (Ab-199): 1.62
  Fold Change T/C: IKK-beta (Phospho-Tyr188): 1.01
  Fold Change T/C: IKK-beta (Phospho-Tyr199): 0.84
  Fold Change T/C: IKK-gamma (Ab-31): 0.96
  Fold Change T/C: IKK-gamma (Phospho-Ser31): 0.98
  Fold Change T/C: IL-4R/CD124 (Ab-497): 0.93
  Fold Change T/C: IL-4R/CD124 (Phospho-Tyr497): 0.93
  Fold Change T/C: IL-10R-alpha (Ab-496): 1.30
  Fold Change T/C: IL-10R-alpha (Phospho-Tyr496): 0.85
  Fold Change T/C: IRS-1 (Ab-312): 1.03
  Fold Change T/C: IkB-alpha (Phospho-Ser32/36): 1.11
  Fold Change T/C: IkB-epsilon (Ab-22): 1.30
  Fold Change T/C: Integrin beta-3 (Ab-773): 1.08
  Fold Change T/C: Integrin beta-3 (Phospho-Tyr773): 0.93
  Fold Change T/C: Interferon-alpha/beta receptor alpha chain (Ab-466): 0.90
  Fold Change T/C: JAK2 (Ab-1007): 1.36
  Fold Change T/C: JunB (Phospho-Ser259): 0.79
  Fold Change T/C: LCK (Ab-393): 1.67
  Fold Change T/C: LKB1 (Ab-334): 0.94
  Fold Change T/C: LYN (Ab-507): 0.58
  Fold Change T/C: LYN (Phospho-Tyr507): 1.06
  Fold Change T/C: Lamin A/C (Ab-392): 1.84
  Fold Change T/C: Lamin A/C (Phospho-Ser392): 0.80
  Fold Change T/C: MDM2 (Ab-166): 1.49
  Fold Change T/C: MEK1 (Ab-291): 0.77
  Fold Change T/C: MEK1 (Phospho-Ser217): 0.62
  Fold Change T/C: MITF (Ab-73): 1.38
  Fold Change T/C: MKK4/SEK1 (Ab-80): 1.10
  Fold Change T/C: MSK1 (Ab-360): 0.69
  Fold Change T/C: Myc (Ab-58): 1.09
  Fold Change T/C: NFkB-p65 (Ab-529): 1.14
  Fold Change T/C: NFkB-p65 (Phospho-Ser311): 1.00
  Fold Change T/C: NFkB-p65 (Phospho-Ser529): 0.82
  Fold Change T/C: NFkB-p100/p52 (Ab-865): 0.76
  Fold Change T/C: NFkB-p100/p52 (Phospho-Ser865): 0.88
  Fold Change T/C: NFkB-p105/p50 (Ab-927): 0.85
  Fold Change T/C: P38 MAPK (Ab-182): 1.70
  Fold Change T/C: P38 MAPK (Phospho-Thr180/Tyr182): 0.35
  Fold Change T/C: P70S6K (Ab-229): 1.33
  Fold Change T/C: P70S6K (Phospho-Ser424): 1.00
  Fold Change T/C: P90RSK (Ab-359/363): 1.06
  Fold Change T/C: P90RSK (Phospho-Thr359/Ser363): 0.95
  Fold Change T/C: PDK1 (Ab-241): 1.24
  Fold Change T/C: PDK1 (Phospho-Ser241): 1.14
  Fold Change T/C: PLCG1 (Phospho-Tyr783): 2.25
  Fold Change T/C: PLK1 (Ab-210): 1.49
  Fold Change T/C: PLK1 (Phospho-Thr210): 0.60
  Fold Change T/C: PP1 alpha (Ab-320): 1.15
  Fold Change T/C: PP2A-alpha (Ab-307): 1.23
  Fold Change T/C: PP2A-alpha (Phospho-Tyr307): 0.93
